Patent US20260248963A1, “COMPOSITIONS FOR TREATING CANCER WITH KRAS MUTATIONS AND USES THEREOF” (AADIGEN, LLC, priority 2023, published 2026)

Experiments:
Format in all cases: cell-based
[1] = system: parental ASPC-1 cells harboring KRAS G12D; test: Growth suppression of parental ASPC-1 cells
Protocol: (§1) To identify mutations or regulatory mechanisms that would confer acquired resistance to KRAS^G12D inhibitor MTRX1133, ASPC-1 and PANC-1 cells harboring KRAS G12D were exposed to increasing concentrations of MTRX-1133 (up to 20 μM). […] Clones resistant to KRAS^G12D inhibitor were generated during the course of the treatment.

[2] = system: MTRX-1133 resistant ASPC-1 cells; test: Cell growth inhibition assay, MTRX-1133 resistant ASPC-1
Protocol: as §1
(§2) ADGN-123 nanoparticle corresponds to gRNA35A5 sgRNA/Cas9 mRNA (1/1 molar ratio) associated with ADGN peptide (ADGN-106-Hydro3 peptide or ADGN-108-R9) at molar ratio 20/1 (peptide/nucleic acid). ADGN-123 nanoparticles were evaluated on the three stable MTRX-1133 resistant PANC-1 clones and two ASPC-1 clones. PANC-1-C1, PANC-1-C2, PANC-1-C3, ASPC-1-C1 and ASPC-1-C2. Cells were cultured in 96-well plate format and treated with free mRNACas9-gRNA, or ADGN-123 (ADGN/mRNACas9-gRNA) complex (from 0.1-10 μM) on day 1. Cell proliferation was analyzed over a period of 5 days using CellTiter Glow kits on GlowMax (Promega) and cytotoxicity was analyzed at 72 hr after treatment using CellTiter Glow or MTT assays kits.

[3] = system: MTRX-1133 resistant PANC-1 cells; test: Cell growth inhibition assay, MTRX-1133 resistant PANC-1
Protocol: as §1, §2

[4] = system: parental PANC-1 cells harboring KRAS G12D; test: Growth suppression of parental PANC-1 cells
Protocol: as §1

C#Cc1c(F)ccc2cc(O)cc(-c3ncc4c(N5CC6CCC(C5)N6)nc(OC[C@@]56CCCN5C[C@H](F)C6)nc4c3F)c12 [MTRX-1133]
Lowest concentration that suppressed the growth of parental cells [1]: 100 nM
IC50 [2]: 2.08 ± 0.203 µM
IC50 [3]: 4.75 ± 0.212 µM
Lowest concentration that suppressed the growth of parental cells [4]: 100 nM
